Assay results taken from patent US8574563B2 (Bristol-Myers Squibb Company, priority 2006, dated 2013).
pEC50: −log10 of the molar value.

tested on: HCV 1b-377-neo replicon cells; test: HCV replicon assay, HCV 1b-377-neo replicon cells (1b FRET); format: cell-based, Hepatitis C virus genotype 1b; details: Hepatitis C virus, HCV 1b-377-neo replicon cells; HCV 1b genotype; read-out: EC50 range against HCV 1b (Table 2, Range)
In short: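 FRET-based replicon assay in HCV 1b-377-neo cells, including a comparison line carrying the NS5A Y2065H mutation that confers resistance to a reference compound.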

| Structure (SMILES) | pEC50 |
| --- | --- |
| COC(=O)N[C@@H](C(=O)N1CCC[C@H]1c1ncc(-c2ccc(-c3ccc(-c4cnc([C@@H]5CCCN5C(=O)Cc5cccnc5)[nH]4)cn3)cc2)[nH]1)c1ccccc1 [Example 143, methyl ((1R)-2-oxo-1-phenyl-2-((2S)-2-(5-(4-(5-(2-((2S)-1-(3-pyridinylacetyl)-2-pyrrolidinyl)-1H-imidazol-5-yl)-2-pyridinyl)phenyl)-1H-imidazol-2-yl)-1-pyrrolidinyl)ethyl)carbamate] | 9.00 to 12.00 |
| CN(C)[C@@H](C(=O)N1CCC[C@H]1c1ncc(-c2ccc(-c3ccc(-c4cnc([C@@H]5CCCN5C(=O)[C@@H](c5ccccc5)N(C)C)[nH]4)cn3)cc2)[nH]1)c1ccccc1 [Example 132, (1R)-2-((2S)-2-(5-(6-(4-(2-((2S)-1-((2R)-2-(dimethylamino)-2-phenylacetyl)-2-pyrrolidinyl)-1H-imidazol-5-yl)phenyl)-3-pyridinyl)-1H-imidazol-2-yl)-1-pyrrolidinyl)-N,N-dimethyl-2-oxo-1-phenylethanamine] | 9.00 to 12.00 |
| CN(C)[C@@H](C(=O)N1CCC[C@H]1c1ncc(-c2ccc(-c3ccc(-c4cnc([C@@H]5CCCN5C(=O)c5cccc(N6CCCC6)c5)[nH]4)cc3)cc2)[nH]1)c1ccccc1 [Example 94-27, (1R)-N,N-dimethyl-2-oxo-1-phenyl-2-((2S)-2-(5-(4′-(2-((2S)-1-(3-(1-pyrrolidinyl)benzoyl)-2-pyrrolidinyl)-1H-imidazol-5-yl)-4-biphenylyl)-1H-imidazol-2-yl)-1-pyrrolidinyl)ethanamine] | 7.00 to 9.00 |
| COC(=O)N[C@@H](C)C(=O)N1CCC[C@H]1c1nc(C(=O)OCc2ccccc2)c(-c2ccc(-c3ccc(-c4cnc([C@@H]5CCCN5C(=O)[C@@H](C)NC(=O)OC)[nH]4)cc3)cc2)[nH]1 [Example J24, benzyl 2-((2S)-l-(N-(methoxycarbonyl)-L-alanyl)-2-pyrrolidinyl)-5-(4-(2-((2S)-l-(N-(methoxycarbonyl)-L-alanyl)-2-pyrrolidinyl)-1H-imidazol-5-yl)-4-biphenylyl)-1H-imidazole-4-carboxylate] | 9.00 to 12.00 |
| CCN(CC)[C@@H](C)C(=O)N1CCC[C@H]1c1ncc(-c2ccc(-c3ccc(-c4cnc([C@@H]5CCCN5C(=O)[C@@H](c5ccccc5)N(CC)CC)[nH]4)cc3)cc2)[nH]1 [Example M36, (2S)-1-((2S)-2-(5-(4′-(2-((2S)-1-((2R)-2-(diethylamino)-2-phenylacetyl)-2-pyrrolidinyl)-1H-imidazol-5-yl)-4-biphenylyl)-1H-imidazol-2-yl)-1-pyrrolidinyl)-N,N-diethyl-1-oxo-2-propanamine] | 7.00 to 9.00 |
| CCN(CC)[C@@H](C(=O)N1CCC[C@H]1c1ncc(-c2ccc(-c3ccc(-c4[nH]c([C@@H]5CCCN5C(=O)[C@@H](c5ccccc5)N(CC)CC)nc4C(F)(F)F)cc3)cc2)[nH]1)c1ccccc1 [Example J40] | 9.00 to 12.00 |
| CC1(O)CCN([C@@H](C(=O)N2CCC[C@H]2c2ncc(-c3ccc(-c4ccc(-c5cnc([C@@H]6CCCN6C(=O)[C@@H](c6ccccc6)N6CCCCC6)[nH]5)cc4)cc3)[nH]2)c2ccccc2)CC1 [Example 107-2, 4-methyl-1-((1R)-2-oxo-1-phenyl-2-((2S)-2-(5-(4′-(2-((2S)-1-((2R)-2-phenyl-2-(1-piperidinyl)acetyl)-2-pyrrolidinyl)-1H-imidazol-5-yl)-4-biphenylyl)-1H-imidazol-2-yl)-1-pyrrolidinyl)ethyl)-4-piperidinol] | 9.00 to 12.00 |
| CCC(=O)N[C@H](C(=O)N1CCC[C@H]1c1nc(-c2ccc(-c3ccc(-c4c[nH]c([C@@H]5CCCN5C(=O)[C@@H](NC(=O)CC)C(C)C)n4)cc3)cc2)c[nH]1)C(C)C [Example F61, N-((1S)-2-methyl-1-(((2S)-2-(4-(4′-(2-((2S)-1-((2S)-3-methyl-2-(propionylamino)butanoyl)-2-pyrrolidinyl)-1H-imidazol-4-yl)-4-biphenylyl)-1H-imidazol-2-yl)-1-pyrrolidinyl)carbonyl)propyl)propanamide] | 7.00 to 9.00 |
| COC(=O)N[C@H](C(=O)N1CCC[C@H]1c1ncc(-c2ccc(-c3ccc(-c4cnc([C@@H]5CCCN5C(=O)[C@H](NC5=NCCN5C)C(C)C)[nH]4)cc3)cc2)[nH]1)C(C)C [cj-11m, methyl ((1S)-2-methyl-1-(((2S)-2-(5-(4′-(2-((2S)-1-(N-(1-methyl-4,5-dihydro-1H-imidazol-2-yl)-D-valyl)-2-pyrrolidinyl)-1H-imidazol-5-yl)-4-biphenylyl)-1H-imidazol-2-yl)-1-pyrrolidinyl)carbonyl)propyl)carbamate] | 7.00 to 9.00 |
| COC(=O)N[C@@H](C)C(=O)N1C[C@@H](F)C[C@H]1c1ncc(-c2ccc(-c3ccc(-c4cnc([C@@H]5C[C@H](F)CN5C(=O)[C@H](C)NC(=O)OC)[nH]4)cc3)cc2)[nH]1 [JG-13, methyl ((1S)-2-((2S,4S)-4-fluoro-2-(5-(4′-(2-((2S,4S)-4-fluoro-1-(N-(methoxycarbonyl)-L-alanyl)-2-pyrrolidinyl)-1H-imidazol-5-yl)-4-biphenylyl)-1H-imidazol-2-yl)-1-pyrrolidinyl)-1-methyl-2-oxoethyl)carbamate] | 7.00 to 9.00 |
| CN(C)[C@@H](C(=O)N1CCC[C@H]1c1ncc(-c2ccc(-c3ccc(-c4cnc([C@@H]5CCCN5C(=O)[C@@H](c5ccccc5)N(C)C)[nH]4)cc3)cc2)[nH]1)c1ccccc1 [Example 1, (1R,1′R)-2, 2′-(4,4′-biphenyldiylbis (1H-imidazole-5,2-diyl(2S)-2,1-pyrrolidinediyl))bis(N,N-dimethyl-2-oxo-1-phenylethanamine)] | 9.00 to 12.00 |
| COC(=O)N[C@H](C(=O)N1CCC[C@H]1c1nc(-c2ccc(-c3ccc(-c4c[nH]c([C@@H]5CCCN5C(=O)[C@@H](NC(=O)O[C@@H]5CCOC5)C(C)C)n4)cc3)cc2)c[nH]1)C(C)C [Example F56, (3R)-tetrahydro-3-furanyl ((1S)-1-(((2S)-2-(4-(4′-(2-((2S)-1-(N-(methoxycarbonyl)-L-valyl)-2-pyrrolidinyl)-1H-imidazol-4-yl)-4-biphenylyl)-1H-imidazol-2-yl)-1-pyrrolidinyl)carbonyl)-2-methylpropyl)carbamate] | 9.00 to 12.00 |
| COC(=O)N[C@H](C(=O)N1CCC[C@H]1c1ncc(-c2ccc(-c3ccc(-c4[nH]c([C@@H]5CCCN5C(=O)[C@@H](NC(=O)OC)C(C)C)nc4CC4OCCCO4)cc3)cc2)[nH]1)C(C)C [Example J14, methyl ((1S)-1-(((2S)-2-(4-(1,3-dioxan-2-ylmethyl)-5-(4′-(2-((2S)-1-((2S)-2-((methoxycarbonyl)amino)-3-methylbutanoyl)-2-pyrrolidinyl)-1H-imidazol-4-yl)-4-biphenylyl)-1H-imidazol-2-yl)-1-pyrrolidinyl)carbonyl)-2-methylpropyl)carbamate] | 9.00 to 12.00 |
| CCN(CC)[C@H]1CC[C@@H](C(=O)N2CCC[C@H]2c2ncc(-c3ccc(-c4ccc(-c5cnc([C@@H]6CCCN6C(=O)[C@H]6CC[C@@H](N(CC)CC)CC6)[nH]5)cc4)cc3)[nH]2)CC1 [cj-152] | 7.00 to 9.00 |
| COC(=O)N[C@H](C(=O)N1CCC[C@H]1c1ncc(-c2ccc(-c3ccc(-c4cnc([C@@H]5CCCN5C(=O)[C@@H](NC(=O)OC)C(C)C)[nH]4)cc3)cc2)[nH]1)C(C)C [Example 24-23] | 9.00 to 12.00 |
| COC(=O)NC(C(=O)N1CCC[C@H]1c1nc(-c2ccc(-c3ccc(-c4cnc([C@@H]5CCCN5C(=O)C(NC(=O)OC)C5CCOCC5)[nH]4)cc3)cc2)c[nH]1)C1CCOCC1 (stereo partly drawn) [Example F39, methyl (2-((2S)-2-(4-(4′-(2-((2S)-1-(((methoxycarbonyl)amino)(tetrahydro-2H-pyran-4-yl)acetyl)-2-pyrrolidinyl)-1H-imidazol-5-yl)-4-biphenylyl)-1H-imidazol-2-yl)-1-pyrrolidinyl)-2-oxo-1-(tetrahydro-2H-pyran-4-yl)ethyl)carbamate] | 9.00 to 12.00 |
| CN(C)CC[C@H](NC(=O)OC(C)(C)C)C(=O)N1CCC[C@H]1c1ncc(-c2ccc(-c3ccc(-c4cnc([C@@H]5CCCN5C(=O)[C@H](CCN(C)C)NC(=O)OC(C)(C)C)[nH]4)cc3)cc2)[nH]1 [cj-140, di-tert-butyl (4,4′-biphenyldiylbis(1H-imidazole-5,2-diyl(2S)-2,1-pyrrolidinediyl((2S)-4-(dimethylamino)-1-oxo-1,2-butanediyl)))biscarbamate] | 6.00 to 7.00 |
| CCN(CC)[C@@H](C(=O)N1CCC[C@H]1c1ncc(-c2ccc(-c3cc(F)c(-c4cnc([C@@H]5CCCN5C(=O)[C@@H](c5ccccc5)N(CC)CC)[nH]4)cc3F)cc2)[nH]1)c1ccccc1 [Example D54, (1R1′R)-2,2′-((2,5-difluoro-4,4′-biphenyldiyl)bis(1H-imidazole-5,2-diyl(2S)-2,1-pyrrolidinediyl))bis (N,N-diethyl-2-oxo-1-phenylethanamine)] | 9.00 to 12.00 |
| COC(=O)N[C@H](C(=O)N1CCC[C@H]1c1nc(-c2cnc(-c3ccc(-c4cnc([C@@H]5CCCN5C(=O)[C@@H](NC(=O)OC)C5CC5)[nH]4)cc3)nc2)c[nH]1)C1CC1 [Example D75, methyl ((1S)-1-cyclopropyl-2-((2S)-2-(5-(2-(4-(2-((2S)-1-((2S)-2-cyclopropyl-2-((methoxycarbonyl)amino)acetyl)-2-pyrrolidinyl)-1H-imidazol-5-yl)phenyl)-5-pyrimidinyl)-1H-imidazol-2-yl)-1-pyrrolidinyl)-2-oxoethyl)carbamate] | 9.00 to 12.00 |
| COC(=O)N[C@@H](C)C(=O)N1CCC[C@H]1c1ncc(-c2ccc(-c3ccc(-c4cnc([C@@H]5CCCN5C(=O)[C@@H](NC(=O)OC)C5CC5)[nH]4)cc3)cc2)[nH]1 [Example M93, methyl ((1S)-1-cyclopropyl-2-((2S)-2-(5-(4′-(2-((2S)-1-(N-(methoxycarbonyl)-L-alanyl)-2-pyrrolidinyl)-1H-imidazol-5-yl)-4-biphenylyl)-1H-imidazol-2-yl)-1-pyrrolidinyl)-2-oxoethyl)carbamate] | 7.00 to 9.00 |
| CCN(CC)[C@@H](C(=O)N1C[C@@H](F)C[C@H]1c1ncc(-c2ccc(-c3ccc(-c4cnc([C@@H]5C[C@H](F)CN5C(=O)[C@@H](c5ccccc5)N(CC)CC)[nH]4)cc3)cc2)[nH]1)c1ccccc1 [Example 24-6] | 9.00 to 12.00 |
| CN(C)[C@@H](C(=O)N1C[C@@H](F)C[C@H]1c1ncc(-c2ccc(-c3ccc(-c4cnc([C@@H]5C[C@H](F)CN5C(=O)[C@@H](c5ccccc5)N(C)C)[nH]4)cc3)cc2)[nH]1)c1ccccc1 [Example 24-5] | 9.00 to 12.00 |
